Measurements published in ChEMBL document CHEMBL4828727, “Antibacterial and antitumoral properties of 1,2,3-triazolo fused triterpenes and their mechanism of inhibiting the proliferation of HL-60 cells” (Eur J Med Chem, 2021).
In brackets after ≈: the same amount, converted by molar mass.

Assays:
CAPAN-1 = assay: cells; assay type: functional, cell-based; conditions: Homo sapiens, CAPAN-1, 72 h
Description: Antiproliferative activity against human CAPAN-1 cells assessed as inhibition of cell viability measured after 72 hrs by colorimetric MTS viability assay

[1] = Antiproliferative activity against human HAP1 cells assessed as inhibition of cell viability measured after 72 hrs by colorimetric MTS viability assay; assay type: functional, cell-based; conditions: HAP1, 72 h
HCT-116 = assay: Antiproliferative activity against human HCT-116 cells assessed as inhibition of cell viability measured after 72 hrs by colorimetric MTS viability assay; assay type: functional, cell-based; conditions: HCT-116, 72 h
HL-60 [2] = assay: cells; assay type: functional, cell-based; conditions: Homo sapiens, HL-60, 72 h
Description: Antiproliferative activity against human HL-60 cells assessed as inhibition of cell viability measured after 72 hrs by real-time IncuCyte proliferation analysis

Z-138 = assay: cells; assay type: functional, cell-based; conditions: Homo sapiens, Z-138, 72 h
Description: Antiproliferative activity against human Z138 cells assessed as inhibition of cell viability measured after 72 hrs by real-time IncuCyte proliferation analysis

Rec1 = assay: cells; assay type: functional, cell-based; conditions: Homo sapiens, Rec1, 72 h
Description: Cytotoxicity against human REC1 cells assessed as inhibition of cell viability measured after 72 hrs by real-time IncuCyte proliferation analysis

HL-60 [3] = assay: Induction of apoptosis in human HL-60 cells assessed as early apoptotic cells at 6 uM after 48 hrs by Annexin V-PE/7-AAD dual staining based flow cytometry (reference value: 1.72 to 3.25%); assay type: functional
HL-60 [4] = assay: Induction of apoptosis in human HL-60 cells assessed as late apoptotic cells at 6 uM after 48 hrs by Annexin V-PE/7-AAD dual staining based flow cytometry (reference value: 3.93%); assay type: functional
HL-60 [5] = assay: Induction of apoptosis in human HL-60 cells assessed as necrotic cells at 6 uM after 48 hrs by Annexin V-PE/7-AAD dual staining based flow cytometry (reference value: 2.64 to 3.64%); assay type: functional
HL-60 [6] = assay: Induction of apoptosis in human HL-60 cells assessed as live cells at 8 uM after 48 hrs by Annexin V-PE/7-AAD dual staining based flow cytometry (reference value: 90.1 to 90.7%); assay type: functional
HL-60 [7] = assay: Induction of apoptosis in human HL-60 cells assessed as early apoptotic cells at 8 uM after 48hrs by Annexin V-PE/7-AAD dual staining based flow cytometry (reference value: 1.72 to 3.25%); assay type: functional
HL-60 [8] = assay: Induction of apoptosis in human HL-60 cells assessed as live cells at 10 uM after 48 hrs by Annexin V-PE/7-AAD dual staining based flow cytometry (reference value: 90.1 to 90.7%); assay type: functional
HL-60 [9] = assay: Induction of apoptosis in human HL-60 cells assessed as early apoptotic cells at 10 uM after 48 hrs by Annexin V-PE/7-AAD dual staining based flow cytometry (reference value: 1.72 to 3.25%); assay type: functional
HL-60 [10] = assay: Induction of apoptosis in human HL-60 cells assessed as necrotic cells at 10 uM after 48 hrs by Annexin V-PE/7-AAD dual staining based flow cytometry (reference value: 2.64 to 3.64%); assay type: functional
HL-60 [11] = assay: Induction of apoptosis in human HL-60 cells assessed as live cells at 6 uM in presence of 3-MA after 48 hrs by Annexin V-PE/7-AAD dual staining based flow cytometry (reference value: 91.1%); assay type: functional
HL-60 [12] = assay: Induction of apoptosis in human HL-60 cells assessed as late apoptotic cells at 6 uM in presence of 3-MA after 48 hrs by Annexin V-PE/7-AAD dual staining based flow cytometry (reference value: 3.12%); assay type: functional
HL-60 [13] = assay: Induction of apoptosis in human HL-60 cells assessed as necrotic cells at 6 uM in presence of 3-MA after 48 hrs by Annexin V-PE/7-AAD dual staining based flow cytometry (reference value: 2.62%); assay type: functional
HL-60 [14] = assay: Induction of apoptosis in human HL-60 cells assessed as early apoptotic cells at 8 uM in presence of 3-MA after 48 hrs by Annexin V-PE/7-AAD dual staining based flow cytometry (reference value: 3.14%); assay type: functional
HL-60 [15] = assay: Induction of apoptosis in human HL-60 cells assessed as late apoptotic cells at 8 uM in presence of 3-MA after 48 hrs by Annexin V-PE and 7AAD based flow cytometry (reference value: 3.12%); assay type: functional
HL-60 [16] = assay: Induction of apoptosis in human HL-60 cells assessed as necrotic cells at 8 uM in presence of 3-MA after 48 hrs by Annexin V-PE and 7AAD based flow cytometry (reference value: 2.62%); assay type: functional
HL-60 [17] = assay: Induction of apoptosis in human HL-60 cells assessed as early apoptotic cells at 10 uM in presence of 3-MA after 48 hrs by Annexin V-PE/7-AAD dual staining based flow cytometry (reference value: 3.14%); assay type: functional
HL-60 [18] = assay: Induction of mitochondrial membrane potential loss in human HL-60 cells at 6 uM after 48 hrs by JC-1 staining based flow cytometry (reference value: 3.49%); assay type: functional
HL-60 [19] = assay: Induction of mitochondrial membrane potential loss in human HL-60 cells at 8 uM after 48 hrs by JC-1 staining based flow cytometry (reference value: 3.49%); assay type: functional
HL-60 [20] = assay: Induction of mitochondrial membrane potential loss in human HL-60 cells at 10 uM after 48 hrs by JC-1 staining based flow cytometry (reference value: 3.49%); assay type: functional
Staphylococcus aureus = assay: Antibacterial activity against Staphylococcus aureus ATCC65385 assessed as growth inhibition after 20 hrs by broth microdilution method; assay type: functional
Escherichia coli = assay: Antibacterial activity against Escherichia coli ATCC47076 assessed as growth inhibition after 20 hrs by broth microdilution method; assay type: functional
Listeria innocua = assay: Antibacterial activity against Listeria innocua LMG11387 assessed as growth inhibition after 20 hrs by broth microdilution method; assay type: functional
HL-60 [21] = assay: Cell cycle arrest in human HL-60 cells assessed as increase in accumulation in G0/G1 phase at 6 uM incubated for 48 hrs by propidium iodide staining based flow cytometric analysis (reference value: 64.97%); assay type: functional
HL-60 [22] = assay: Cell cycle arrest in human HL-60 cells assessed as decrease in accumulation in S phase at 6 uM incubated for 48 hrs by propidium iodide staining based flow cytometric analysis (reference value: […]); assay type: functional; parameters: scale not given: the % may be the effect or the level left
HL-60 [23] = assay: Cell cycle arrest in human HL-60 cells assessed as accumulation of cells at G2/M phase at 6 uM incubated for 48 hrs by propidium iodide staining based flow cytometric analysis (reference value: 6.61%); assay type: functional
HL-60 [24] = assay: Cell cycle arrest in human HL-60 cells assessed as decrease in accumulation in S phase at 8 uM incubated for 48 hrs by propidium iodide based flow cytometric analysis (reference value: 28.42%); assay type: functional; parameters: scale not given: the % may be the effect or the level left
HL-60 [25] = assay: Cell cycle arrest in human HL-60 cells assessed as increase in accumulation in G0/G1 phase at 10 uM incubated for 48 hrs by propidium iodide based flow cytometric analysis (Rvb =64.97%); assay type: functional
HL-60 [26] = assay: Cell cycle arrest in human HL-60 cells assessed as decrease in accumulation in S phase at 10 uM incubated for 48 hrs by propidium iodide based flow cytometric analysis (reference value: 28.42%); assay type: functional; parameters: scale not given: the % may be the effect or the level left
HL-60 [27] = assay: Cell cycle arrest in human HL-60 cells assessed as accumulation of cells at G2/M phase at 10 uM incubated for 48 hrs by propidium based flow cytometric analysis (reference value: 6.61%); assay type: functional
HL-60 [28] = assay: Induction of autophagy in human HL-60 cells assessed as fold increase in MDC fluorescence intensity at 10 uM measured after 48 hrs by flow cytometry relative to control; assay type: functional

- IC50 (CAPAN-1): 8.1 µM
- IC50 (HCT-116): 15.2 µM
- IC50 (HL-60 [2]): 1.3 µM
- IC50 (Z-138): 11.3 µM
- IC50 (Rec1): 6.2 µM
- MIC50 (Staphylococcus aureus): 32.3 µg/mL (≈ 49.5 µM)
- MIC50 (Escherichia coli): 413 µg/mL (≈ 632 µM)
- MIC50 (Listeria innocua): 103 µg/mL (≈ 158 µM)
SMILES: COc1ccc2[nH]cc(CCn3nnc4c3C(C)(C)[C@@H]3CC[C@]5(C)[C@H](CC=C6[C@@H]7CC(C)(C)CC[C@]7(C(=O)O)CC[C@]65C)[C@@]3(C)C4)c2c1
- IC50 [1]: 4.1 µM
- Activity (HL-60 [3]): 3.06%
- Activity (HL-60 [4]): 6.26%
- Activity (HL-60 [5]): 0.501%
- Activity (HL-60 [6]): 50.1%
- Activity (HL-60 [7]): 4.97%
- Activity (HL-60 [8]): 20.4%
- Activity (HL-60 [9]): 8.13%
- Activity (HL-60 [10]): 0.628%
- Activity (HL-60 [11]): 82.1%
- Activity (HL-60 [12]): 13.7%
- Activity (HL-60 [13]): 0.358%
- Activity (HL-60 [14]): 20%
- Activity (HL-60 [15]): 8.89%
- Activity (HL-60 [16]): 2.21%
- Activity (HL-60 [17]): 14.7%
- Activity (HL-60 [18]): 7.86%
- Activity (HL-60 [19]): 33.9%
- Activity (HL-60 [20]): 60.8%
- Activity (HL-60 [21]): 67.5%
- Activity (HL-60 [22]): 24.83%
- Activity (HL-60 [23]): 7.66%
- Activity (HL-60 [24]): 20.46%
- Activity (HL-60 [25]): 85.45%
- Activity (HL-60 [26]): 11.39%
- Activity (HL-60 [27]): 3.16%
- fold change (FC) (HL-60 [28]): 2
